These results are taken from patent publication US20120022294A1, “Axomadol or a Metabolite Thereof for Use in the Treatment of Irritable Bowel Syndrome” (priority 2010, published 2012).

Test [1] deals with isolated guinea pig ileum. The experiment in a line: twitch contractions (electrically induced) of the isolated guinea pig ileum. Conditions: for IC50: Cavia porcellus; for threshold of reduction of electrically induced contractions: concentration-dependent; for % reversal by naloxone: naloxone 10^−6 M added after last application of test compound; for inhibitory effect reversed after addition of naloxone: opioid receptor antagonist naloxone 1 μM; for maximal reduction: twitch reaction remaining as % of pre-value at highest concentration. The procedure: It was investigated whether axomadol and (+)-O-demethyl axomadol are able to modulate gastrointestinal motility.
Male guinea pigs (PBW, Charles River, Kiβlegg, FRG) weighing 250-350 g were used for the study. The animals were kept under standard housing conditions: light/dark rhythm (06.00-18.00 h light, 18.00-6.00 h dark); room temperature 22±2° C., relative air humidity 55±5%; 15 air changes per hour, air movement <0.2 m/sec. The animals were given water and an exclusive diet of “Herilan RM 204” (Eggersmann Company, Rinteln/FRG) ad libitum. Before experimental preparation they were kept in groups of up to 5 animals in type IV Makrolon cages (Ebeco Company, Castrop-Rauxel, FRG). There were at least 4 days between delivery and testing.
Axomadol hydrochloride and (+)-O-demethyl axomadol hydrochloride were dissolved in aqua bidest. Final concentrations in the organ bath ranged from 10^−7 to 3.2·10^−4 M and from 10^−8 to 3.2·10^−5 M for axomadol hydrochloride and (+)-O-demethyl axomadol hydrochloride respectively (cumulative drug application). Naloxone (10^−6 M) was used as opioid antagonist.
A four-compartment organ bath (Dept. Biotechnology, Grunenthal GmbH) consisting of 20 ml acrylic glass compartments, organ supports and force transducers (F10 force transducers, Type 375, HSE, FRG) was used for the measurement of isometric contractions. The organ bath was filled and emptied by means of a semi-automatic dosing arrangement. All experiments were performed at […]. The nutrient solution was gassed with carbogen (95% O2/5% CO2)) both in the nutrient storage chamber and in the organ bath starting 30 min before the beginning and throughout the experiment.
The nutrient solution had the following composition:
Parameter: contraction force [g]
Guinea pigs were killed in CO2-atmosphere and the ileum was dissected free from adhering tissue, removed and suspended in the organ bath. After an incubation period of at least 30 min, isometric contractions (twitch reactions) were elicited by transmural stimulation pulses (duration 1 ms, amplitude 180 mA at 0.03 Hz; stimulator A310, WPI, FRG). A pre-tension of 1 g was applied to the preparations and constantly readjusted during the equilibration period (at least 30 minutes) while the nutrient was changed twice.
After having registered the pre-value, test compounds were added to the organ bath in cumulative concentration steps as indicated. The exposure time for each concentration was 6 minutes. After the last application of the test compound, the opioid-antagonist naloxone (10^−6 M) was added without previous wash out of the test compound.
1.5 Evaluation Data was calculated as the mean electrically stimulated contraction force during a period of 4 to 6 minutes after compound application and expressed as percentage of the pre-value. The mean contraction force during a period of 2 minutes before compound application was taken as pre-value. All results were expressed as means±s.e.m. of ≧4 single experiments. For determination of IC50 values, regression lines (y=f log x) were constructed and IC50 values with s.e.m. were calculated using a computer-assisted regression analysis program (Grünenthal GmbH). The reversal of the test compound's activity by the antagonist was determined according to the following equation:
with max. effect being: 100%−% reduction of pre-value of twitch reaction at highest dose of test compound.

In test [2] the test system is visceral hyperalgesia induced by rectal administration of mustard oil in mice. The experiment in a line: visceral hyperalgesia / mustard oil colitis in mice. It is filed as in vivo. An excerpt:
The effects of axomadol hydrochloride on visceral hyperalgesia were studied, which was induced by rectal administration of mustard oil in mice (according to Laird J M, Martinez-Caro L, Garcia-Nicas E, Cervero F. (2001) A new model of visceral pain and referred hyperalgesia in the mouse. Pain 92: 335-42). The typical visceral pain behaviour was quantified in three parameters: During the first minutes after mustard oil administration spontaneous visceral pain behaviour occurs. Following this period of spontaneous pain, referred allodynia and hyperalgesia can be quantified by means of von Frey filaments of different strength stimulating the abdomen of the mice.
Male NMRI mice (28-38 g body weight) from a commercial breeder (Iffa Credo, France) were used. The animals were housed under standardized conditions: light/dark cycle (06.00-18.00 h light, 18.00-06.00 h dark), room temperature 20-24° C., relative air humidity 35-70%, 15 air changes per hour, air movement <0.2 m/sec, tap water and standard diet ad libitum, macrolon type 4 cages with maximally 30 animals per cage. There were at least 5 days between delivery and start of the experiment.
Axomadol hydrochloride was dissolved in vehicle solution and injected intra-venously.
Doses: 0.464; 1.0; 2.15; 4.64; 10.0 mg/kg i.v. Administration volume: 10 ml/kg Vehicle solution: 0.9% NaCl solution (Fresenius, Bad Homburg, FRG) Mustard oil was dissolved in vehicle solution and administered intra-rectally Dose: 50 μl of a 3.5 Vol.−% solution per animal Vehicle solution: PEG 200
2.3.1 Induction of Colitis Animals were habituated to the test conditions for 20-30 min and stimulated with von Frey filaments onto the abdominal wall. 10 stimulations with von Frey filaments of 1, 4, 8, 16, and 32 mN were applied in ascending order (i.e. 10×1 mN, 10×4 mN, etc.). Animals with more than 25 positive reactions during this phase were excluded. Vaseline was applied in the perianal area to avoid the stimulation of somatic areas with the irritant chemical. Colitis is induced by rectal administration of 50 μl mustard oil (3.5%). Control animals are treated with vehicle (50 μl PEG200).
Axomadol hydrochloride or vehicle was given intravenously (i.v.) 5 min before mustard oil. Seven animals were tested per group. The following parameters were counted:
2-12 min after mustard oil: • 1. Spontaneous pain score: counting and scoring of visceral pain behaviours (Score 1-2, 1=licking of abdominal wall, 2=stretching, squashing, mounting, backward-movement or contraction of the flank muscles). 20-40 min after mustard oil • 2. […]
Data were analysed by means of two-factor analysis of variance (ANOVA) with repeated measures. Significance of treatment-, time- or treatment x time interaction effects was analyzed by means of Wilks' Lambda statistics. […]

[3] abbreviates: isolated guinea pig ileum, mean ± s.e.m., read-out: IC50 value, reduction of electrically induced contractions.
Where [4] appears, read: twitch contractions of the guinea pig ileum, cumulative application, read-out: IC50.

Where a name gives a salt, the structure may show the parent alone. Read-outs that look alike come from different tables or passages of the source.

On to `COc1cccc([C@@]2(O)C[C@H](O)CC[C@@H]2CN(C)C)c1` (racemic) [axomadol hydrochloride, (1RS,3RS,6RS)-6-dimethylaminomethyl-1-(3-methoxyphenyl)-cyclohexane-1,3-diol], for which the half-maximal inhibitory concentration (IC50) in test [1] (setting [3]) turned out to be 39.2 ± 2.8 µM. Also, in test [1] (setting [4]), the half-inhibitory concentration (IC50) is 39.2 ± 2.8 µM. For the same compound, the “twitch reactions, reduction to % of pre-value” in test [1] (increasing concentrations up to 320 μM) is 32.1 % of pre-value. In addition, the “threshold of reduction of electrically induced contractions” value in test [1] (isolated guinea pig ileum) is “around 10 μM”. For the same compound, in test [1], the “% reversal by naloxone” value is 83.4%, the “inhibitory effect reversed after addition of naloxone” value is recorded as 83.4% and the maximal reduction is on record as 32.1 % pre-value. The “inhibition of all three visceral pain parameters” value in test [2] (0.464, 1.0, 2.15, 4.64 and 10.0 mg/kg i.v.) was “dose dependent and significant inhibition”. Also, in test [2] (i.v. 5 min before mustard oil, 1 mN von Frey filament, 20-40 min after mustard oil), the “ED50 (95% confidence intervals), referred allodynia” value is recorded as 6.13 (5.56-6.60-4.75) mg/kg i.v. Moreover, the “ED50 (95% confidence intervals), spontaneous visceral pain behaviour” value in test [2] (i.v. 5 min before mustard oil, 2-12 min after mustard oil) was 2.62 (1.79-4.05) mg/kg i.v. Further, the “ED50 (95% confidence intervals), referred hyperalgesia” value in test [2] (i.v. 5 min before mustard oil, 16 mN von Frey filament, 20-40 min after mustard oil) is given as 2.72 (1.58-5.46) mg/kg i.v.

For the compound `CN(C)CC1CCC(O)CC1(O)c1cccc(O)c1` (single isomer, unassigned; (+)) [(+)-O-demethyl axomadol hydrochloride, 6-dimethylaminomethyl-1-(3-hydroxyphenyl)-cyclohexane-1,3-diol], in test [1] (setting [3]), the IC50 was determined as 0.43 ± 0.09 µM. In addition, the IC50 in test [1] (setting [4]) came to 0.43 ± 0.09 µM. The “twitch reactions, reduction to % of pre-value” in test [1] (increasing concentrations up to 32 μM) is reported as 16.6±3 % of pre-value. In addition, the “threshold of reduction of electrically induced contractions” value in test [1] (isolated guinea pig ileum) was “around 0.032 μM”. In test [1], the “% reversal by naloxone” value is 69.1%, the “inhibitory effect reversed after addition of naloxone” value is listed as 69.1% and the maximal reduction is on record as 16.6 % pre-value.
